A word on the Ki: it is the equilibrium dissociation constant of an inhibitor or competing ligand from its target.

The text below walks through data of ChEMBL document CHEMBL1687939 (J Med Chem, 2011).

Molecules are shown by their SMILES. Activity calls are given as the source filed them. The calls are words filed in the database; no cut-off is given here.

Among the targets are Carbonic anhydrase 12 (Homo sapiens, UniProt O43570); Carbonic anhydrase 9 (Homo sapiens, UniProt Q16790); Carbonic anhydrase 1 (Homo sapiens, UniProt P00915).
For data set [1], the system named is 4T1. Nature of the data set: Antimetastatic activity against mouse 4T1 cells expressing luciferase xenografted in BALB/c mouse assessed as limiting colonization of the cells in the lungs at 15 to 45 mg/kg, ip administered as 3 doses on alternate days measured 24 hrs post last dose by bioluminescent technique relative to control. Type of data set: functional, organism-based.

Data set [2] concerns Mus musculus. Nature of the data set: Toxicity in BALB/c mouse assessed as body weight loss at 15 to 45 mg/kg, ip qd administered as 3 doses on alternate days. The format is organism-based. On the set-up: dose 15-45 mg/kg, route intraperitoneal. The following applies: in vivo.
Data set [3] relates to Mus musculus. Briefly: Toxicity in BALB/c mouse assessed as body weight loss at 15 to 30 mg/kg, ip qd for 5 days. Type of data set: organism-based. On the set-up: dose 15-30 mg/kg, route intraperitoneal. The following applies: in vivo, 120 h.
The subject of data set [4] is 4T1. Briefly: Antimetastatic activity against mouse 4T1 cells expressing luciferase xenografted in BALB/c mouse assessed as reduction in metastasic burden in lungs at 15 to 30 mg/kg, ip qd administered 24 hrs after challenge for 5 days measured 24 hrs post last dose by bioluminescent technique relative to control. The format is functional, organism-based.

Sequence of Carbonic anhydrase 12 (O43570 whole entry): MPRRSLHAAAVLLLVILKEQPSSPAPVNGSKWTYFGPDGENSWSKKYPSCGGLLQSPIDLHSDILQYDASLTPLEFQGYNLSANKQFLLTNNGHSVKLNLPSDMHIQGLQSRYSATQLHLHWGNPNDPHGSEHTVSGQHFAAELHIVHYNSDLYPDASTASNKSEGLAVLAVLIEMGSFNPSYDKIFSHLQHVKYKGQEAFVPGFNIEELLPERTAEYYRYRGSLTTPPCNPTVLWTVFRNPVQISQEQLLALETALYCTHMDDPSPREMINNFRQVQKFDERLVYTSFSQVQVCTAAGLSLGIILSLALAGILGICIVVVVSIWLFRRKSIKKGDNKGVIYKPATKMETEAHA
Sequence of Carbonic anhydrase 1 (P00915 whole entry): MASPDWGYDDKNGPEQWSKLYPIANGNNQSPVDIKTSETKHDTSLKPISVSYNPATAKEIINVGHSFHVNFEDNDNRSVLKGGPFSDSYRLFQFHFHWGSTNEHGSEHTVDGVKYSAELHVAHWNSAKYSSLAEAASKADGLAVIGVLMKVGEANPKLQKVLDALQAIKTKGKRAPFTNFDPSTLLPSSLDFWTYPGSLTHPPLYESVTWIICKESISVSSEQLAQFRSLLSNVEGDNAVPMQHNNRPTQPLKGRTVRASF
Description for Carbonic anhydrase 12: Inhibition of tumor-associated human carbonic anhydrase 12 preincubated for 15 min by CO2 hydration assay
Description for Carbonic anhydrase 9: Inhibition of tumor-associated human carbonic anhydrase 9 preincubated for 15 min by CO2 hydration assay

On to `NS(=O)(=O)c1ccc(NC(=O)Nc2ccc(Cl)cc2)cc1`, for which affinity at Carbonic anhydrase 12 was put at a Ki of 5.3 nM.
Regarding `CC(C)c1ccc(NC(=O)Nc2ccc(S(N)(=O)=O)cc2)cc1`, the Ki on Carbonic anhydrase 12 came out at 49.7 nM; on Carbonic anhydrase 9, 541 nM.
On to `N#Cc1ccc(NC(=O)Nc2ccc(S(N)(=O)=O)cc2)cc1`, for which the Ki at Carbonic anhydrase 1 amounted to 57 nM; on Carbonic anhydrase 12 it was 6.5 nM; on Carbonic anhydrase 9, 6 nM.
The molecule `COc1ccc(NC(=O)Nc2ccc(S(N)(=O)=O)cc2)c(C)c1` had a Ki at Carbonic anhydrase 12 of 6 nM.
With `NS(=O)(=O)c1ccc(NC(=O)Nc2cccc([N+](=O)[O-])c2)cc1`, the Activity entry in the data set on 4T1 [1] is “Dose-dependent effect”; in the data set with Mus musculus [2] it was “Non-toxic”. The molecule also had an inhibition constant Ki on Carbonic anhydrase 9 of 0.9 nM.
`CC(C)c1ccccc1NC(=O)Nc1ccc(S(N)(=O)=O)cc1`: the values for the Ki at Carbonic anhydrase 12 and at Carbonic anhydrase 9 were 4.2 nM and 0.5 nM, respectively.
As for `COc1ccccc1NC(=O)Nc1ccc(S(N)(=O)=O)cc1`, the Ki at Carbonic anhydrase 1 is 92 nM; on Carbonic anhydrase 12, 61.2 nM; on Carbonic anhydrase 9, 465 nM.
In the case of `CC(=O)c1ccc(NC(=O)Nc2ccc(S(N)(=O)=O)cc2)cc1`, in the data set with Mus musculus [3], the Activity entry was “Non-toxic”. At Carbonic anhydrase 12, this molecule displayed a Ki of 4.6 nM. Besides, in the data set on 4T1 [4], the outcome was inactive.
`N#Cc1ccccc1NC(=O)Nc1ccc(S(N)(=O)=O)cc1`: the results for the Ki on Carbonic anhydrase 1, on Carbonic anhydrase 12 and on Carbonic anhydrase 9 were 10.9 nM, 4.6 nM and 0.3 nM, respectively.
Regarding `NS(=O)(=O)c1ccc(NC(=O)Nc2ccc(I)cc2)cc1`, the figures for the Ki at Carbonic anhydrase 12 and on Carbonic anhydrase 9 were 4.3 nM and 24.5 nM, respectively.
`NS(=O)(=O)c1ccc(NC(=O)Nc2ccc(Br)cc2)cc1`: the Ki at Carbonic anhydrase 12 is 7.9 nM; at Carbonic anhydrase 9 it was 69.3 nM.
Turning to `CCCCOc1ccc(NC(=O)Nc2ccc(S(N)(=O)=O)cc2)cc1`, the Ki was found to be 2.5 nM at Carbonic anhydrase 12 and 0.8 nM on Carbonic anhydrase 9.
As to `CCCCc1ccc(NC(=O)Nc2ccc(S(N)(=O)=O)cc2)cc1`, the Ki worked out at 28.5 nM at Carbonic anhydrase 12 and 376 nM at Carbonic anhydrase 9.
In the case of `NS(=O)(=O)c1ccc(NC(=O)Nc2ccc(Oc3ccccc3)cc2)cc1`, the figures for the Ki at Carbonic anhydrase 1, at Carbonic anhydrase 12 and on Carbonic anhydrase 9 were 604 nM, 7.1 nM and 69.1 nM, respectively.
